According to ChEMBL document CHEMBL5465560, “Selectivity Literature for EUbOPEN Chemogenomic Library” (2024):

Key:
[1] = molecular target: MAP/microtubule affinity-regulating kinase 3 (Homo sapiens) (UniProt P27448); assay: Selectivity interaction (KinomeScan (DiscoverX)) EUB0000092b MARK3; conditions: at 10 µM
[2] = molecular target: Ribosomal protein S6 kinase alpha-1 (Homo sapiens, UniProt Q15418); assay: Selectivity interaction (KinomeScan (DiscoverX)) EUB0000092b RPS6KA1; conditions: at 10 µM
Ribosomal protein S6 kinase alpha-1, sequence (Q15418 whole entry): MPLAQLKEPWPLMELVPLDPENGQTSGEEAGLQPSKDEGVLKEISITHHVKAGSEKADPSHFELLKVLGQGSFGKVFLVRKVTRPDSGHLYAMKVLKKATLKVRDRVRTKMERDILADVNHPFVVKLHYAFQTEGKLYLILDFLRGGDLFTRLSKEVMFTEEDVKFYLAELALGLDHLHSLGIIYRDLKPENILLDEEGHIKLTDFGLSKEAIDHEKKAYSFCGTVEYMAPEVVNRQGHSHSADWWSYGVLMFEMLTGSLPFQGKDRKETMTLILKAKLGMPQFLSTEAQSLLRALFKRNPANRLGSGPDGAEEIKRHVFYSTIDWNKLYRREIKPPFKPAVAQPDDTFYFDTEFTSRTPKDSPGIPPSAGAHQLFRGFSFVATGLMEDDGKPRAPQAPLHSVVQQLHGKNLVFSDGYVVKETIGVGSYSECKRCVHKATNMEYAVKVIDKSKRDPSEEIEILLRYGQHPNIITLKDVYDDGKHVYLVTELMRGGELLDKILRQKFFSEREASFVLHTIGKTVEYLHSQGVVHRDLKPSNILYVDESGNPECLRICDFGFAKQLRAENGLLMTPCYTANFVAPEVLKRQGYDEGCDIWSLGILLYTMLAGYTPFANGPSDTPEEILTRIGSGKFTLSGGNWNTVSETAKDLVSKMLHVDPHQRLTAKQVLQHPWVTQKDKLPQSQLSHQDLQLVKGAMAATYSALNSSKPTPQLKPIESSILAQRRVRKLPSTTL

[3] = molecular target: CDK6/cyclin D1 (Homo sapiens) (UniProt P24385+Q00534); assay: (§1) Selectivity interaction (ProQinase) EUB0000171b CDK6; format: protein-complex assay
[4] = molecular target: CDK6/cyclin D3 (Homo sapiens) (UniProt P30281+Q00534); assay: as §1; format: protein-complex assay
[5] = molecular target: T1, Lymphokine-activated killer T-cell-originated protein kinase (Homo sapiens) (UniProt Q96KB5); assay: Selectivity interaction (Kinase panel (DSF assay)) EUB0001559a PBK
T1 sequence (whole entry): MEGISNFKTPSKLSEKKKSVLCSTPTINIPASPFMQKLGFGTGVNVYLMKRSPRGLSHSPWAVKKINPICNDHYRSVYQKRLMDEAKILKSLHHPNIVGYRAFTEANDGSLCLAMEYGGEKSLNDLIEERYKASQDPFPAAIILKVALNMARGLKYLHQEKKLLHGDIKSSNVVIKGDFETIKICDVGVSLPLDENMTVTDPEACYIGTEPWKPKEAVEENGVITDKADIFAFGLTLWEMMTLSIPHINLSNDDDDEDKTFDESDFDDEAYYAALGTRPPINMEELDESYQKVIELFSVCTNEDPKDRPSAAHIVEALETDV

[6] = molecular target: T2, Cyclin-dependent kinase 2 (Homo sapiens, UniProt P24941); conditions: at 10 µM
[7] = molecular target: T3, Interleukin-1 receptor-associated kinase 3 (Homo sapiens) (UniProt Q9Y616); conditions: at 10 µM
T3 sequence (whole entry): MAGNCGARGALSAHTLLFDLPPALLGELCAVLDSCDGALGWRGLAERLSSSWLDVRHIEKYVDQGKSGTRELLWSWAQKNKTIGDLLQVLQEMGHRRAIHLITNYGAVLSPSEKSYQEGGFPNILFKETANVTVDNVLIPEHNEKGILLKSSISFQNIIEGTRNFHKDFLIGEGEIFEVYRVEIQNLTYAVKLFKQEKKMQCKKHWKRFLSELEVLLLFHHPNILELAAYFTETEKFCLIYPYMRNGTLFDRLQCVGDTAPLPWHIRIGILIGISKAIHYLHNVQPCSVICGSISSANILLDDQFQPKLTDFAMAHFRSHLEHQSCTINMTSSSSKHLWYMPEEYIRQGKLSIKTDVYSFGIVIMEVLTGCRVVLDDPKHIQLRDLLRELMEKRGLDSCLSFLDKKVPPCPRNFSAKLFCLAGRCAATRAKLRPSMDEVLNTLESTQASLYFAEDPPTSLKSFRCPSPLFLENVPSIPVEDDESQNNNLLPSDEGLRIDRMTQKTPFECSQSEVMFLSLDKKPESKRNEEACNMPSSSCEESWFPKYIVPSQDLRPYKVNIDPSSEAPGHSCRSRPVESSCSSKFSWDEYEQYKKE

[8] = molecular target: T4, Dual specificity mitogen-activated protein kinase kinase 4 (Homo sapiens) (UniProt P45985); conditions: at 10 µM
T4 sequence (whole entry): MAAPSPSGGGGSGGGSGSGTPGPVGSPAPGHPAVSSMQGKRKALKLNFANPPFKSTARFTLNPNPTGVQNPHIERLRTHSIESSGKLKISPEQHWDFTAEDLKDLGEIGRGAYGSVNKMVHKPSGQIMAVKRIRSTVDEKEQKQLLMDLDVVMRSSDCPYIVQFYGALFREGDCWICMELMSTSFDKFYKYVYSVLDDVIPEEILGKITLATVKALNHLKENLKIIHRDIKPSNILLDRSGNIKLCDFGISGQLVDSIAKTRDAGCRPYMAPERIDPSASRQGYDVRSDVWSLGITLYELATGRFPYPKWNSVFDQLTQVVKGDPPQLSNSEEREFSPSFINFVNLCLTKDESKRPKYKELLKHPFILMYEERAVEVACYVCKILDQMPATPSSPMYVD

[9] = molecular target: Cyclin-dependent kinase 5 (Homo sapiens, UniProt Q00535); assay: Selectivity interaction (ActivX KiNativ screen (kinase selectivity in THP-1 cell lysates)) EUB0000639a CDK5; format: subcellular; conditions: lysate, at 0.04 µM
Cyclin-dependent kinase 5, sequence (Q00535 whole entry, looked up): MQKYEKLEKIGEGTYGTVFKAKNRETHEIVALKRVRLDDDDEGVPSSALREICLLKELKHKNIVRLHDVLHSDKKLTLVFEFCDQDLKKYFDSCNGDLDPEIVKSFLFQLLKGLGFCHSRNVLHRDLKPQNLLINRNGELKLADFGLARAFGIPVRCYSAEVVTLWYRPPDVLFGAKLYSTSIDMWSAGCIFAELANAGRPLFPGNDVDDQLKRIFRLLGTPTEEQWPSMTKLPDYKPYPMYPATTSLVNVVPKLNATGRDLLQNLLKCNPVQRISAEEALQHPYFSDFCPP

[10] = molecular target: Mitogen-activated protein kinase kinase kinase kinase 1 (Homo sapiens) (UniProt Q92918); assay: Selectivity interaction (ActivX KiNativ screen (kinase selectivity in THP-1 cell lysates)) EUB0000639a MAP4K1; format: subcellular; conditions: lysate, at 5 µM
Mitogen-activated protein kinase kinase kinase kinase 1 (Homo sapiens), sequence (Q92918 whole entry, looked up): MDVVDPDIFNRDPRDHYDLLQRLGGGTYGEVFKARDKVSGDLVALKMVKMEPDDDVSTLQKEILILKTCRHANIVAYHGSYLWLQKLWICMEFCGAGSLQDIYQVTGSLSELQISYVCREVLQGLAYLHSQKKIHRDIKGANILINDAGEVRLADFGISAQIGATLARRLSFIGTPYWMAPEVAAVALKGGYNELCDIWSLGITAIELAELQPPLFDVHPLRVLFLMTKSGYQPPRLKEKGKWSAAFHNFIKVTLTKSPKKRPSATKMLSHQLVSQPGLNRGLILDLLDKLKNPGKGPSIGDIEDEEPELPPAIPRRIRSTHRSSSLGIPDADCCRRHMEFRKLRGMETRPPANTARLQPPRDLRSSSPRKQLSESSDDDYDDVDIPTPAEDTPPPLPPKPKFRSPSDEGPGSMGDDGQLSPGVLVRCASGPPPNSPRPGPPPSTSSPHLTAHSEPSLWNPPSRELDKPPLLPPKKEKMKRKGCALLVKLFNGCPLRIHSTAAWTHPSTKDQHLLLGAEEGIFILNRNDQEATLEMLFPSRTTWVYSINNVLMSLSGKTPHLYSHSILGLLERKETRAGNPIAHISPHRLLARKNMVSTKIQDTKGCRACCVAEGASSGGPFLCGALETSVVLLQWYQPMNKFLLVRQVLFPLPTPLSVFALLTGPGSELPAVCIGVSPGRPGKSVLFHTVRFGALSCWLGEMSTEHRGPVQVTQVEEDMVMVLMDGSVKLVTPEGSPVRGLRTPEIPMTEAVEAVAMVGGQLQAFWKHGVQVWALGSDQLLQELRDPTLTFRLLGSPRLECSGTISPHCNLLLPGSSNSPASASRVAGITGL

[11] = molecular target: Dual specificity mitogen-activated protein kinase kinase 1 (Homo sapiens, UniProt Q02750); assay: Selectivity interaction (KinomeScan (DiscoverX)) EUB0001049a MAP2K1; conditions: at 1 µM
Dual specificity mitogen-activated protein kinase kinase 1, sequence (Q02750 whole entry): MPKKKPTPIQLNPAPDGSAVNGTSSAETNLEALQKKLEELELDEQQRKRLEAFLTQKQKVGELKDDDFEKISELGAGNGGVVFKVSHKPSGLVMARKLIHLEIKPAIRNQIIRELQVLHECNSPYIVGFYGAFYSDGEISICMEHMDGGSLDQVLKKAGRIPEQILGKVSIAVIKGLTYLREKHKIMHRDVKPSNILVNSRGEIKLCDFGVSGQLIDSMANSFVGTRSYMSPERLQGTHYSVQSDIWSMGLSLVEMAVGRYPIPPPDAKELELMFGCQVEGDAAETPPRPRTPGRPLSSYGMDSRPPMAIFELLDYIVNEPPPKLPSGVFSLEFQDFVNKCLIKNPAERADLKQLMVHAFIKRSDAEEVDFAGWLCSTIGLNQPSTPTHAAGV

[12] = molecular target: T2, Cyclin-dependent kinase 2; assay: Selectivity interaction (Ambit KINOMEscan and KiNATiv profiling in Jurkat cells) EUB0000090b CDK2; format: cell-based; conditions: at 1 µM

MAP/microtubule affinity-regulating kinase 3 (Homo sapiens), sequence (P27448 whole entry, looked up): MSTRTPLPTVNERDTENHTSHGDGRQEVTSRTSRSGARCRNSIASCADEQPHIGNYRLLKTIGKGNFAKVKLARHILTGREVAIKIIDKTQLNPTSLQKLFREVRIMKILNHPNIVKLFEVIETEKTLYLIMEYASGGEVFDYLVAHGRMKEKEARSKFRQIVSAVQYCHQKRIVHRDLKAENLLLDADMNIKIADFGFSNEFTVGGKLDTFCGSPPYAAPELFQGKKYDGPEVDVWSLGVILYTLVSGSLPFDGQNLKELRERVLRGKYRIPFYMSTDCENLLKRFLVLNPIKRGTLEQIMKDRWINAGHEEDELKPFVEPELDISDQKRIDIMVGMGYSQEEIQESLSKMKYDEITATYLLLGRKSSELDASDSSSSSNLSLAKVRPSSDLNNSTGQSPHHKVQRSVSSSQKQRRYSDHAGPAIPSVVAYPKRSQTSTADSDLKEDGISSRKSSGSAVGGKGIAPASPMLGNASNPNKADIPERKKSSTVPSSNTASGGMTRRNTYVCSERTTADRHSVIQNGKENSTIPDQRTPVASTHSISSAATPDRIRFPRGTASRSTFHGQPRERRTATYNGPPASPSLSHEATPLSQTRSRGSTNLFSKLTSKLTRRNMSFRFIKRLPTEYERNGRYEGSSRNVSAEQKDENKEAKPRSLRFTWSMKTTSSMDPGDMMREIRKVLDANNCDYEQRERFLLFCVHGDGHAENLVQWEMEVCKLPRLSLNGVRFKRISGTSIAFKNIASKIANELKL

Which results are given for CCC(=O)N1CCN(c2ccc(-n3c(=O)ccc4cnc5ccc(-c6cnc7ccccc7c6)cc5c43)cc2C(F)(F)F)CC1?
% of control [1]: 100%; % of control [2]: 68%

C=CC(=O)Nc1cccc(C(=O)Nc2ccc(Nc3cc(-c4[nH]c(SC)nc4C)ccn3)cc2)c1 was tested. Which % of control ([3]; at 1 µM) did it give?
The % of control was 91%.

And the % of control ([3]; at 5 µM)?
The % of control was 87%.

And the % of control ([4]; at 1 µM)?
The % of control was 93%.

And the % of control ([4]; at 5 µM)?
Its % of control is 86%.

Which dTM [5] does the source give for CN(C(=O)c1cnn2cccnc12)c1cc2c(cc1N1CCOCC1)C(=O)N(C[C@@H](F)C(C)(C)O)C2 here?
Its dTM is 0.7 K.

Cc1cc([C@@H](C)Nc2ccccc2C(=O)O)c2nc(N3CCOCC3)cc(=O)n2c1 [AZD-6482] was tested. Which % of control [6] did it give?
Its % of control is 93%.

And the % of control [7]?
The % of control was 58%.

What about the % of control [8] of the same compound?
The % of control was 100%.

How did the % of inhibition [9] turn out when CC[C@@H]1[C@H](F)C(=O)N[C@@H]1COc1nccc2cc(C(N)=O)c(OC)cc12 [ZIMLOVISERTIB] was run?
The % of inhibition was 8.4%.

What about the % of inhibition [10] of the same compound?
Its % of inhibition is -4.3%.

How did the % of control [11] turn out when COc1cc(Nc2nc(C)cc(-c3cnn4nc(OC)ccc34)n2)cc(C(F)(F)F)c1 was run?
Its % of control is 80%.

For CN(C)C/C=C/C(=O)Nc1ccc(C(=O)N2CCCC(Nc3ncc(Cl)c(-c4c[nH]c5ccccc45)n3)C2)cc1 (centres undefined), which % of control [12] is on record?
Its % of control is 72%.
